According to patent US8178668B2, “2-aminopyridine kinase inhibitors” (OSI Pharmaceuticals, LLC, priority 2008, dated 2012):
pIC50: −log10 of the molar value. Where a name gives a salt, the structure may show the parent alone.

What was measured:
MET (human) = MET (human) (Homo sapiens, UniProt P08581); test: MET kinase AlphaScreen assay (Km of ATP); assay type: biochemical; conditions: ATP at Km; at least duplicate experiments
In short: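 Biotinylated poly(Glu,Tyr) (200 ng/μL) phosphorylated by MET with ATP at an enzyme-optimized level, in 50 mM HEPES pH 7.4 with Mg2+/Mn2+ and vanadate, 1% DMSO. Reaction runs 60 min at RT. PT66 AlphaScreen donor/acceptor beads are added and signal is read after 1 h.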

RON (human) = RON (human) (Homo sapiens, UniProt Q04912); test: RON kinase AlphaScreen assay (Km of ATP); assay type: biochemical; conditions: ATP at Km; at least duplicate experiments
In short: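 Human RON phosphorylated biotinylated poly(Glu,Tyr) (200 ng/μL) at Km ATP in 50 mM HEPES pH 7.4, 12.5 mM MgCl2, 1% glycerol, 0.334 mM vanadate, 1% DMSO. Reaction ran 30 min at RT after enzyme addition. Product was detected by AlphaScreen with PT66 beads after 1 h.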

Chain of RON (human) (Q04912 25-1400): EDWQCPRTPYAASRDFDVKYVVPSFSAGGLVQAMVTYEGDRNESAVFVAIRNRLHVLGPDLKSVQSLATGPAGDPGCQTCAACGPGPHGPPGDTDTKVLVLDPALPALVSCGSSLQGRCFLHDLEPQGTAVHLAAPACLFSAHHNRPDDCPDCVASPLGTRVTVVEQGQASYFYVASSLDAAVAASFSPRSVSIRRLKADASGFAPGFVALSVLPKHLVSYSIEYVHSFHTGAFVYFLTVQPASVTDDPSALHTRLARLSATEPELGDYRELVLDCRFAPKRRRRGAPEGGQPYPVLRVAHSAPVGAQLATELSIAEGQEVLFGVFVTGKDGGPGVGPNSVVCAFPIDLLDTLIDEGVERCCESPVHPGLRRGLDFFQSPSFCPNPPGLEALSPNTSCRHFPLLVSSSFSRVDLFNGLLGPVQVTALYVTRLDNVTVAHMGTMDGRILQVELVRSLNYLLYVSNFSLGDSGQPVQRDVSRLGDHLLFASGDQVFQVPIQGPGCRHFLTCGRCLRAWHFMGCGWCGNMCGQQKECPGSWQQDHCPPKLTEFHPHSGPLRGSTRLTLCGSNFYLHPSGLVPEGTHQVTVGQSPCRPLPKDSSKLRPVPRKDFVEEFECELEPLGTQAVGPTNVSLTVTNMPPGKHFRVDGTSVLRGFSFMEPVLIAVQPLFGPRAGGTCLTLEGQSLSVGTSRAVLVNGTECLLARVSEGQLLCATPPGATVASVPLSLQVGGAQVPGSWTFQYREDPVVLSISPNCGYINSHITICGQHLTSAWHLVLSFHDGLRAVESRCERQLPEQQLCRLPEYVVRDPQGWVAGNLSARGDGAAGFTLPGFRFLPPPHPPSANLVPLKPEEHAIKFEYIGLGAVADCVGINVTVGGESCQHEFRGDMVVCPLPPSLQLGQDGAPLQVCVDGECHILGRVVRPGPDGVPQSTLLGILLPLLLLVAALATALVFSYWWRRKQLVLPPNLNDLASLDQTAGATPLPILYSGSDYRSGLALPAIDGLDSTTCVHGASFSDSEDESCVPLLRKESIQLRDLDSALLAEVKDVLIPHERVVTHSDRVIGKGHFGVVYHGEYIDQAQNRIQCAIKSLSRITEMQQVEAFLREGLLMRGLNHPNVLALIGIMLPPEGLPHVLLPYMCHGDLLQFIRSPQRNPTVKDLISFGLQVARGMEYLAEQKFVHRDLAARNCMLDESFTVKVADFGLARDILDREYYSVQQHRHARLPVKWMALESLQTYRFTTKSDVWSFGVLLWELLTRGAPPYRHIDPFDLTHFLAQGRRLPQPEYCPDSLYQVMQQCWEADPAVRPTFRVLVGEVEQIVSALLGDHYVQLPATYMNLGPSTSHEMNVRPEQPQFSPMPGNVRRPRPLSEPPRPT
Chain of MET (human) (P08581 25-1390): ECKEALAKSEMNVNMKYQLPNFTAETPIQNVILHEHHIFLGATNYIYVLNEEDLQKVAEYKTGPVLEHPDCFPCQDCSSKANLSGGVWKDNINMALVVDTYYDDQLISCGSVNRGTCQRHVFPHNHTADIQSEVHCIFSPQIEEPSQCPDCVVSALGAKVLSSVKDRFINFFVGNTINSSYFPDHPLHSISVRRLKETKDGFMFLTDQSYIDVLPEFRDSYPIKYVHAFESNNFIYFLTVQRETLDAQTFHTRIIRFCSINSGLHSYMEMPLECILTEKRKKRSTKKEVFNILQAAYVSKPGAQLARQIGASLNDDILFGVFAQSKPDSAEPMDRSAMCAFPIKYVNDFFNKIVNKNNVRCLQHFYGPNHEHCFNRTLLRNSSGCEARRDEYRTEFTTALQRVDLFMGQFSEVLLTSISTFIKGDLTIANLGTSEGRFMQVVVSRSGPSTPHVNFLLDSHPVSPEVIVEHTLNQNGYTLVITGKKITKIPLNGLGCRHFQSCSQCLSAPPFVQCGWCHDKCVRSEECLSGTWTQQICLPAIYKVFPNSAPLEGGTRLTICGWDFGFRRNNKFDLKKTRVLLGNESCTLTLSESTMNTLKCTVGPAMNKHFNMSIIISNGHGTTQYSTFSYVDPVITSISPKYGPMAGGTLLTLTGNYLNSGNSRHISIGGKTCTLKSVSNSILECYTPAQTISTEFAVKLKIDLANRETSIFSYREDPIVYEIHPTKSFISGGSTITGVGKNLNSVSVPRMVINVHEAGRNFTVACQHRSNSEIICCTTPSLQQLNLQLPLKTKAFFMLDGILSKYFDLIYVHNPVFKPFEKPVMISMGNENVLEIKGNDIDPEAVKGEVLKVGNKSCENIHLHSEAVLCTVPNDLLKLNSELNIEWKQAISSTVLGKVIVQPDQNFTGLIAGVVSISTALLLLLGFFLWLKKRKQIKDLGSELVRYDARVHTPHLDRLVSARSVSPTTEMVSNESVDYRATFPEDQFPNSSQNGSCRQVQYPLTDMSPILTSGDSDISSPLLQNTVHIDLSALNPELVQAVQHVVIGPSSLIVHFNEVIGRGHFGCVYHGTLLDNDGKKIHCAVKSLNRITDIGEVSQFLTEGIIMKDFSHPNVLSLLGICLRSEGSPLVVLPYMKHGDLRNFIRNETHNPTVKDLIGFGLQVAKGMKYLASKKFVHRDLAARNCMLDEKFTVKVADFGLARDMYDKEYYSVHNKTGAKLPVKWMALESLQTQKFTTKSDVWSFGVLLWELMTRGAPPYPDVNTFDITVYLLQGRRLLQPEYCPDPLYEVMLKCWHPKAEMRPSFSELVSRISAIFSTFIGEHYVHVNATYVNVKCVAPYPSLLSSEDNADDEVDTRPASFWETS

pIC50 (MET (human)) | pIC50 (RON (human)) | SMILES
6.00 to 7.00 | 4.70 to 6.00 | Nc1ncc(-c2cnn(C3CCNCC3)c2)cc1-c1oc2ccccc2c1-c1cccc(F)c1F [Example 98, 3-[3-(2,3-Difluorophenyl)benzofuran-2-yl]-5-(1-piperidin-4-yl-1H-pyrazol-4-yl)pyridine-2-ylamine]
6.00 to 7.00 | 6.00 to 7.00 | Nc1ncc(-c2cnn([C@@H]3CCNC3)c2)cc1-c1cc2ccccc2o1 [Example 99, 3-Benzofuran-2-yl-5-((R)-1-pyrrolidin-3-yl-1H-pyrazol-4-yl)-pyridin-2-ylamine dihydrochloride]
6.00 to 7.00 | 6.00 to 7.00 | Nc1ncc(-c2cnn([C@H]3CCNC3)c2)cc1-c1cc2ccccc2o1 [Example 100, 3-Benzofuran-2-yl-5-((S)-1-pyrrolidin-3-yl-1H-pyrazol-4-yl)-pyridin-2-ylamine dihydrochloride]
4.70 to 6.00 | 4.70 to 6.00 | Cn1cc(-c2cnc(N)c(-c3cc4ccccc4o3)c2)cn1 [Example 101, 3-Benzofuran-2-yl-5-(1-methyl-1H-pyrazol-4-yl)-pyridin-2-ylamine bis-hydrochloride]
6.00 to 7.00 | 4.70 to 6.00 | CC(C)n1cc(-c2cnc(N)c(-c3cc4ccccc4o3)c2)cn1 [Example 102, 3-Benzofuran-2-yl-5-(1-isopropyl-1H-pyrazol-4-yl)-pyridin-2-ylamine bis-hydrochloride]
6.00 to 7.00 | 4.70 to 6.00 | CN(C)C(=O)N1CCC(n2cc(-c3cnc(N)c(-c4cc5ccccc5o4)c3)cn2)CC1 [Example 103, 4-[4-(6-Amino-5-benzofuran-2-yl-pyridin-3-yl)-pyrazol-1-yl]-piperidine-1-carboxylic acid dimethylamide bis-hydrochloride]
≥ 7.00 | 6.00 to 7.00 | Nc1ncc(-c2cnn(C3CCNCC3)c2)cc1-c1cc2ccccc2s1 [Example 104, 3-Benzo[b]thiophen-2-yl-5-(1-piperidin-4-yl-1H-pyrazol-4-yl)-pyridin-2-ylamine bishydrochloride]
4.70 to 6.00 | 4.70 to 6.00 | Cc1c(-c2cc(-c3cnn(C4CCNCC4)c3)cnc2N)sc2ccccc12 [Example 105, 3-(3-Methylbenzo[b]thiophen-2-yl)-5-(1-piperidin-4-yl-1H-pyrazol-4-yl)pyridin-2-ylamine bishydrochloride]
≥ 7.00 | 6.00 to 7.00 | Nc1ncc(-c2cnn(C3CCNCC3)c2)cc1-c1nc2ccccc2o1 [Example 106, 3-Benzoxazol-2-yl-5-(1-piperidin-4-yl-1H-pyrazol-4-yl)-pyridin-2-ylamine dihydrochloride]
≥ 7.00 | ≥ 7.00 | Nc1ncc(-c2cnn(C3CCNCC3)c2)cc1-c1nc2ccccc2s1 [Example 107, 3-Benzothiazol-2-yl-5-(1-piperidin-4-yl-1H-pyrazol-4-yl)-pyridin-2-ylamine dihydrochloride]
6.00 to 7.00 | 6.00 to 7.00 | Nc1ncc(-c2cnn(C3CCOCC3)c2)cc1-c1nc2ccccc2s1 [Example 111, 3-Benzothiazol-2-yl-5-[1-(tetrahydropyran-4-yl)-1H-pyrazol-4-yl]-pyridin-2-ylamine]
4.70 to 6.00 | 4.70 to 6.00 | Nc1ncc(-c2cn[nH]c2)cc1-c1nc2ccccc2s1 [Example 112, 3-Benzothiazol-2-yl-5-(1H-pyrazol-4-yl)-pyridin-2-ylamine]
6.00 to 7.00 | 4.70 to 6.00 | Nc1ncc(-c2cnn(C3CCCCC3)c2)cc1-c1nc2ccccc2s1 [Example 113, 3-Benzothiazol-2-yl-5-(1-cyclohexyl-1H-pyrazol-4-yl)-pyridin-2-ylamine bis-hydrochloride]
6.00 to 7.00 | 6.00 to 7.00 | COCCN1CCC(n2cc(-c3cnc(N)c(-c4nc5ccccc5s4)c3)cn2)CC1 [Example 114, 3-Benzothiazol-2-yl-5-1-[1-(2-methoxyethyl)-piperidin-4-yl]-1H-pyrazol-4-yl-pyridin-2-ylamine]
4.70 to 6.00 | 4.70 to 6.00 | Nc1ncc(-c2cnn(C3CCN(CC(F)(F)F)CC3)c2)cc1-c1nc2ccccc2s1 [Example 115, 3-Benzothiazol-2-yl-5-1-[1-(2,2,2-trifluoroethyl)-piperidin-4-yl]-1H-pyrazol-4-yl-pyridin-2-ylamine dihydrochloride]
6.00 to 7.00 | 6.00 to 7.00 | NC(=O)N1CCC(n2cc(-c3cnc(N)c(-c4nc5ccccc5s4)c3)cn2)CC1 [Example 116, 4-[4-(6-Amino-5-benzothiazol-2-yl-pyridin-3-yl)-pyrazol-1-yl]-piperidine-1-carboxamide bis-hydrochloride]

pIC50 (MET (human)) | pIC50 (RON (human)) | SMILES
6.00 to 7.00 | 6.00 to 7.00 | CN(C)C(=O)N1CCC(n2cc(-c3cnc(N)c(-c4nc5ccccc5s4)c3)cn2)CC1 [Example 117, 4-[4-(6-Amino-5-benzothiazol-2-yl-pyridin-3-yl)-pyrazol-1-yl]-piperidine-1-carboxylic acid dimethylamide bis-hydrochloride]
6.00 to 7.00 | 6.00 to 7.00 | CC(C)n1cc(-c2cnc(N)c(-c3nc4ccccc4s3)c2)cn1 [Example 118, 3-Benzothiazol-2-yl-5-(1-isopropyl-1H-pyrazol-4-yl)-pyridin-2-ylamine bis-hydrochloride]
4.70 to 6.00 | 4.70 to 6.00 | Cn1cc(-c2cnc(N)c(-c3nc4ccccc4s3)c2)cn1 [Example 119, 3-Benzothiazol-2-yl-5-(1-methyl-1H-pyrazol-4-yl)-pyridin-2-ylamine bis-hydrochloride]
4.70 to 6.00 | 4.70 to 6.00 | Nc1ncc(-c2cnc(N3CCOCC3)s2)cc1-c1nc2ccccc2s1 [Example 120, 3-Benzothiazol-2-yl-5-(2-morpholin-4-ylthiazol-5-yl)-pyridin-2-ylamine]
6.00 to 7.00 | 6.00 to 7.00 | CN1CCN(c2ncc(-c3cnc(N)c(-c4nc5ccccc5s4)c3)s2)CC1 [Example 121, 3-Benzothiazol-2-yl-5-[2-(4-methylpiperazin-1-yl)-thiazol-5-yl]-pyridin-2-ylamine dihydrochloride]
6.00 to 7.00 | 6.00 to 7.00 | Nc1ncc(-c2cnc(N3CCNCC3)s2)cc1-c1nc2ccccc2s1 [Example 122, 3-Benzothiazol-2-yl-5-(2-piperazin-1-ylthiazol-5-yl)-pyridin-2-ylamine dihydrochloride]
6.00 to 7.00 | 6.00 to 7.00 | Nc1ncc(-c2cnn(C3CCC(=O)CC3)c2)cc1-c1nc2ccccc2s1 [Example 123, 4-[4-(6-Amino-5-benzothiazol-2-ylpyridin-3-yl)-pyrazol-1-yl]-cyclohexanone]
< 4.70 | 4.70 to 6.00 | Nc1ncc(-c2cnn(C3CCC4(CC3)OCCO4)c2)cc1-c1nc2ccccc2s1 [Example 124, 3-Benzothiazol-2-yl-5-[1-(1,4-dioxaspiro[4.5]dec-8-yl)-1H-pyrazol-4-yl]-pyridin-2-ylamine]
4.70 to 6.00 | < 4.70 | CC(C)(C)OC(=O)NCC#Cc1cnc(N)c(-c2nc3ccccc3s2)c1 [Example 125, [3-(6-Amino-5-benzothiazol-2-ylpyridin-3-yl)-prop-2-ynyl]-carbamic acid tert-butyl ester]
4.70 to 6.00 | < 4.70 | NCC#Cc1cnc(N)c(-c2nc3ccccc3s2)c1 [Example 126, 5-(3-Aminoprop-1-ynyl)-3-benzothiazol-2-ylpyridin-2-ylamine]
4.70 to 6.00 | 4.70 to 6.00 | CN(C)C(=O)NCC#Cc1cnc(N)c(-c2nc3ccccc3s2)c1 [Example 127, 3-[3-(6-Amino-5-benzothiazol-2-ylpyridin-3-yl)-prop-2-ynyl]-1,1-dimethylurea]
4.70 to 6.00 | 4.70 to 6.00 | CCN1CCN(C(=O)NCC#Cc2cnc(N)c(-c3nc4ccccc4s3)c2)CC1 [Example 128, 4-Ethylpiperazine-1-carboxylic acid [3-(6-amino-5-benzothiazol-2-ylpyridin-3-yl)-prop-2-ynyl]-amide]
4.70 to 6.00 | 4.70 to 6.00 | NC(=O)NCC#Cc1cnc(N)c(-c2nc3ccccc3s2)c1 [Example 129, [3-(6-Amino-5-benzothiazol-2-ylpyridin-3-yl)-prop-2-ynyl]-urea]
6.00 to 7.00 | 4.70 to 6.00 | CN(C)CC(=O)NCC#Cc1cnc(N)c(-c2nc3ccccc3s2)c1 [Example 130, N-[3-(6-Amino-5-benzothiazol-2-ylpyridin-3-yl)-prop-2-ynyl]-2-dimethylaminoacetamide]
4.70 to 6.00 | 4.70 to 6.00 | Nc1ncc(C#CCNC(=O)CN2CCCC2)cc1-c1nc2ccccc2s1 [Example 131, N-[3-(6-Amino-5-benzothiazol-2-ylpyridin-3-yl)-prop-2-ynyl]-2-pyrrolidin-1-ylacetamide]
4.70 to 6.00 | 4.70 to 6.00 | Nc1ncc(-c2cnn(CC(=O)N3CCOCC3)c2)cc1-c1nc2ccccc2s1 [Example 132, 2-[4-(6-Amino-5-benzothiazol-2-ylpyridin-3-yl)-pyrazol-1-yl]-1-morpholin-4-ylethanone]

SMILES | pIC50 (MET (human)) | pIC50 (RON (human))
CN1C2CCC1CC(n1cc(-c3cnc(N)c(-c4nc5ccccc5s4)c3)cn1)C2 (stereo not shown) [Example 108, 3-Benzothiazol-2-yl-5-[1-(8-methyl-8-azabicyclo [3.2.1]oct-3-yl)-1H-pyrazol-4-yl]-pyridin-2-ylamine trihydrochloride] | ≥ 7.00 | ≥ 7.00
CN1C2CCC1CC(n1cc(-c3cnc(N)c(-c4nc5ccccc5s4)c3)cn1)C2 (stereo not shown) [Example 109, 3-Benzothiazol-2-yl-5-[1-(8-methyl-8-azabicyclo[3.2.1]oct-3-yl)-1H-pyrazol-4-yl]-pyridin-2-ylamine] | ≥ 7.00 | ≥ 7.00
Nc1ncc(-c2cnn(C3CC4CCC(C3)N4)c2)cc1-c1nc2ccccc2s1 (stereo not shown) [Example 110, 5-[1-(8-Azabicyclo[3.2.1]oct-3-yl)-1H-pyrazol-4-yl]-3-benzothiazol-2-ylpyridin-2-ylamine] | 6.00 to 7.00 | 6.00 to 7.00
